Patent US11753373B2, “Protease inhibitors as antivirals” (priority 2021, dated 2023)
Read-outs that look alike come from different tables or passages of the source.

Assays:
SARS-CoV-2 = test: Anti-viral in vitro PRNT assay in Vero E6 cells; format: cell-based; details: for EC50: read-out: anti-SARS-CoV2 (PRNT) in Vero E6 EC50
[1] = format: in vitro ADME, Human; details: extraction ratio, compound at 1 uM, human liver microsomes 0.5 mg/mL
Protocol: (§1) Metabolic stability of novel protease inhibitors was determined via liver microsomal stability assay. Human, mouse, SD rat, beagle dog or monkey liver microsomes were incubated with the test compound for 5 to 60 minutes at 37° C., and then the remaining parent compound was quantified by LC-MS/MS. Percentage of the test compound remaining, half-life (t1/2), in vitro intrinsic clearance (CLint, in vitro), in vivo intrinsic clearance (CLint, in vivo), hepatic clearance (CLh) and extraction ratio (ER) were calculated.
(§2) Procedure: The assay was done as described in Baranczewski, P. et al. (2006) Pharmacological Reports 58:453-472; Pearson, P. and Wienkers, L. (2008) Handbook of Drug Metabolism, 2nd Edition. CRC Pres, P.478; and Venkatesh, P. et al. (2007) Biol. Pharm. Bull. 30:1021-2024. 0.625 mg/mL liver microsomes solution was prepared by mixing 2325 μL 100 mM of K-phosphate buffer (pH 7.4) containing 2.5 mM of MgCl2, 1.25 mM of EDTA, and 75 μL microsomes (20 mg/mL) in a vial for each species.
(§3) Positive control compound: (±) Verapamil hydrochloride (Cat No.: V4629; Lot No.: MKBV4993V; Source: Sigma)
(§4) 40 μL aliquots of the liver microsome/test compound mixture were dispensed into 96-well plate in triplicate and pre-warmed the mixture for 5 minutes at 37° C. Then, 10 μL of 5 mM NADPH solution was added to each well to initiate the reaction, and gently mixed. The samples were incubated at 37° C. with gentle shaking.
(§5) For 0-min samples, 200 μL of ACN containing internal standard was added to 40 μL of liver microsome/test compound mixture, followed by addition of 5 mM NADPH, and mixed gently.
(§6) For negative control: 40 μL of liver microsome/test compound mixture was incubated at 37° C. with gentle shaking for 60 minutes, followed by addition of 200 μL ACN containing 1% FA and internal standard and 10 μL of 5 mM NADPH, mixed gently.
(§7) All samples were centrifuged at 4° C. for 20 minutes at 4,000 rpm. Then, 100 μL of the supernatant from each sample was transferred to a new 96-well plate and 100 μL of ultrapure water containing 1% FA was added to each well, and mixed gently. Samples were analyzed by LC-MS/MS.
(§8) Data Analysis: Peak area ratio (Peak Area of test compound/Peak Area of internal standard) was used to represent the concentration of compound in each sample. The remaining percentage (% Remaining) at appointed time points was calculated versus the concentration of compound at 0 min. The Ln value of the remaining percentage was linearly fitted against the incubation time.
(§9) The half-life and clearance were calculated using the following equations:
(§10) Determined percent of the remaining test compound: % remaining=[area at tx/average areas at t0]×100 (1) % metabolized=[100−% remaining] (2)
(§11) Calculated the half-life (t1/2) using the slope (k) of the log-linear regression from the concentration of remaining parent compound versus time (min) relationship: t1/2 (min)=−ln 2/k. (3)
(§12) Clint, in vitro (mL/min/mg) Clint,in vitro=k/c,(c:Liver microsome concentration in the incubation system) (4)
(§13) Hepatic Clearance (CLh) CLh=Clint,in vivo*Hepatic Blood Flow (mL/min/kg)/(Hepatic Blood Flow (mL/min/kg)+Clint,in vivo) (6)
(§14) Extraction ratio (ER): ER=CLint,in vivo/(Qh+CLint,in vivo)*100,Qh:liver blood flow (7)

[2] = format: in vitro ADME; details: extraction ratio, compound at 1 uM; for Liver Microsomal Stability (ER) SD rat: SD rat liver microsomes 0.5 mg/mL; for Liver Microsomal Stability (ER) Beagle dog: beagle dog liver microsomes 0.5 mg/mL; for Liver Microsomal Stability (ER) Monkey: monkey liver microsomes 0.5 mg/mL; for Liver Microsomal Stability (ER) Mouse: mouse liver microsomes 0.5 mg/mL
Protocol: as §1, §2, §3
as §4, with “shaking. (Final concentrations: compound=1 μM; liver microsomes protein=0.5 mg/mL; MgCl2=2 mM; EDTA=1 mM; ACN=0.1%; DMSO=0.05%).” for “shaking.”
as §5, §6, §7, §8, §9, §10, §11, §12, §13, §14

[3] = Vero E6 cells, 1000 pfu, 3 days, plaque reduction

## C[C@@H](C#N)NC(=O)[C@@H]1[C@@H]2[C@H](CN1C(=O)[C@@H](NC(=O)C(F)(F)F)C1CC1)C2(C)C [Compound F-3-a]
SARS-CoV-2
  anti-SARS-CoV2 (PRNT) in Vero E6 EC50 (μM): inactive

## COC(=O)[C@H](C[C@@H]1CCNC1=O)NC(=O)[C@H](CC(C)C)NC(=O)c1cc2ccccc2[nH]1 [Compound A-1-a, methyl (S)-2-((S)-2-(1H-indole-2-carboxamido)-4-methylpentanamido)-3-((S)-2-oxopyrrolidin-3-yl)propanoate]
SARS-CoV-2; [3]
  anti-SARS-CoV2 (PRNT) in Vero E6 EC50 (μM): inactive

## C[C@@H](C=O)NC(=O)[C@H](CC1CCCCC1)N(C(=O)OCc1ccccc1)C1CC1 [Compound E-1-b]
SARS-CoV-2
  anti-SARS-CoV2 (PRNT) in Vero E6 EC50 (μM): inactive

## CC(C)C[C@H](NC(=O)OCc1ccccc1)C(=O)N[C@H](C#N)C[C@@H]1CCNC1=O [Compound B-1-e]
SARS-CoV-2; [3]
  EC50: 10500 nM
[1]
  Liver Microsomal Stability (ER) Human: 0.24
[2]
  Liver Microsomal Stability (ER) SD rat: 0.48
  Liver Microsomal Stability (ER) Beagle dog: 0.37
  Liver Microsomal Stability (ER) Monkey: 0.11
  Liver Microsomal Stability (ER) Mouse: 0.00

## COc1cccc2[nH]c(C(=O)N[C@@H](CC(C)C)C(=O)N[C@@H](C[C@@H]3CCNC3=O)C(=O)CO)cc12 [Compound A-5-d]
SARS-CoV-2; [3]
  EC50: 3500 nM
[1]
  Liver Microsomal Stability (ER) Human: 0.09
[2]
  Liver Microsomal Stability (ER) SD rat: 0.11
  Liver Microsomal Stability (ER) Beagle dog: 0.07
  Liver Microsomal Stability (ER) Mouse: 0.38

## C[C@@H](C#N)NC(=O)[C@@H]1[C@@H]2[C@H](CN1C(=O)[C@@H](NC(=O)C(F)(F)F)C(C)(C)C)C2(C)C [Compound F-1-c]
SARS-CoV-2
  anti-SARS-CoV2 (PRNT) in Vero E6 EC50 (μM): inactive

## CC(C)[C@@H](C#N)NC(=O)[C@@H]1[C@@H]2[C@H](CN1C(=O)[C@@H](NC(=O)C(F)(F)F)C(C)(C)C)C2(C)C [Compound F-2-c]
SARS-CoV-2
  anti-SARS-CoV2 (PRNT) in Vero E6 EC50 (μM): inactive

## CC(C)[C@H](NC(=O)[C@@H]1[C@@H]2[C@H](CN1C(=O)[C@@H](NC(=O)C(F)(F)F)C(C)(C)C)C2(C)C)C(=O)CCl [Compound F-2-b]
SARS-CoV-2; [3]
  EC50: 420 nM
[1]
  Liver Microsomal Stability (ER) Human: 0.81
[2]
  Liver Microsomal Stability (ER) SD rat: 0.65
  Liver Microsomal Stability (ER) Beagle dog: 0.55
  Liver Microsomal Stability (ER) Monkey: 0.57
  Liver Microsomal Stability (ER) Mouse: 0.50

## O=C[C@H](C[C@@H]1CCNC1=O)NC(=O)[C@H](CC1CCCCC1)NC(=O)c1cc2ccccc2[nH]1 [Compound A-2-c]
SARS-CoV-2
  EC50: 640 nM

## C[C@@H](C=O)NC(=O)[C@@H]1[C@@H]2[C@H](CN1C(=O)[C@@H](NC(=O)C(F)(F)F)C1CC1)C2(C)C [Compound F-3-c]
SARS-CoV-2; [3]
  anti-SARS-CoV2 (PRNT) in Vero E6 EC50 (μM): inactive
[1]
  Liver Microsomal Stability (ER) Human: −0.35
[2]
  Liver Microsomal Stability (ER) SD rat: 0.02
  Liver Microsomal Stability (ER) Beagle dog: −0.04
  Liver Microsomal Stability (ER) Monkey: −0.03
  Liver Microsomal Stability (ER) Mouse: −0.05

## C=CC(=O)N[C@@H](NC(=O)[C@@H]1[C@@H]2[C@H](CN1C(=O)[C@@H](NC(=O)C(F)(F)F)C1CC1)C2(C)C)C(C)C [Compound F-4-b]
SARS-CoV-2
  anti-SARS-CoV2 (PRNT) in Vero E6 EC50 (μM): inactive

## COC(=O)[C@H](C[C@@H]1CCNC1=O)NC(=O)[C@@H]1[C@@H]2[C@H](CN1C(=O)[C@@H](NC(=O)C(F)(F)F)C(C)(C)C)C2(C)C [Compound D-1-a, methyl (2S)-2-{[(1R,2S,5S)-3-[(2S)-3,3-dimethyl-2-(trifluoroacetamido)-butanoyl]-1,5-dihydrogenio-6,6-dimethyl-3-azabicyclo[3.1.0]hexan-2-yl]formamido}-3-[(3S)-2-oxopyrrolidin-3-yl]propanoate]
SARS-CoV-2
  anti-SARS-CoV2 (PRNT) in Vero E6 EC50 (μM): inactive

## COC(=O)[C@@H](NC(=O)[C@@H]1[C@@H]2[C@H](CN1C(=O)[C@@H](NC(=O)C(F)(F)F)C(C)(C)C)C2(C)C)C(C)C [Compound F-2-a, methyl ((1R,2S,5S)-3-((S)-3,3-dimethyl-2-(2,2,2-trifluoroacetamido)-butanoyl)-6,6-dimethyl-3-azabicyclo[3.1.0]hexane-2-carbonyl)-L-valinate]
SARS-CoV-2
  anti-SARS-CoV2 (PRNT) in Vero E6 EC50 (μM): inactive

## C=CC(=O)N[C@@H](NC(=O)[C@@H]1[C@@H]2[C@H](CN1C(=O)[C@@H](NC(=O)C(F)(F)F)C(C)(C)C)C2(C)C)C(C)C [Compound F-2-d]
SARS-CoV-2
  anti-SARS-CoV2 (PRNT) in Vero E6 EC50 (μM): inactive

## C=CC(=O)N[C@H](C)NC(=O)[C@@H]1[C@@H]2[C@H](CN1C(=O)[C@@H](NC(=O)C(F)(F)F)C(C)(C)C)C2(C)C [Compound F-1-d]
SARS-CoV-2
  anti-SARS-CoV2 (PRNT) in Vero E6 EC50 (μM): inactive

## CC(C)C[C@H](NC(=O)c1cc2ccccc2[nH]1)C(=O)N[C@@H](C[C@@H]1CCNC1=O)C(=O)O [Compound A-1-e, (2S)-2-[(2S)-2-[(1H-indol-2-yl)formamido]-4-methylpentanamido]-3-[(3S)-2-oxopyrrolidin-3-yl]propanoic acid]
[1]
  Liver Microsomal Stability (ER) Human: 0.00
[2]
  Liver Microsomal Stability (ER) SD rat: −0.02
  Liver Microsomal Stability (ER) Beagle dog: 0.02
  Liver Microsomal Stability (ER) Mouse: 0.09

## C=CC(=O)[C@H](C[C@@H]1CCNC1=O)NC(=O)[C@H](CC(C)C)NC(=O)OCc1ccccc1 [Compound B-1-d]
SARS-CoV-2
  anti-SARS-CoV2 (PRNT) in Vero E6 EC50 (μM): inactive

## COC(=O)[C@H](C[C@@H]1CCNC1=O)NC(=O)[C@H](CC1CCCCC1)NC(=O)OCc1ccccc1 [Compound B-2-a, methyl (S)-2-((S)-2-(((benzyloxy)carbonyl)amino)-3-cyclohexylpropan-amido)-3-((S)-2-oxopyrrolidin-3-yl)propanoate]
SARS-CoV-2; [3]
  anti-SARS-CoV2 (PRNT) in Vero E6 EC50 (μM): inactive

## CC(C)C[C@@H](NC(=O)c1cc2c(F)cccc2[nH]1)C(=O)N[C@H](C#N)C[C@@H]1CCNC1=O [Compound A-3-b]
[1]
  Liver Microsomal Stability (ER) Human: 0.18
[2]
  Liver Microsomal Stability (ER) SD rat: 0.37
  Liver Microsomal Stability (ER) Beagle dog: 0.06
  Liver Microsomal Stability (ER) Mouse: 0.37

## COC(=O)[C@H](C[C@@H]1CCNC1=O)NC(=O)[C@H](CC(C)C)NC(=O)OCc1ccccc1 [Compound B-1-a, methyl (S)-2-((S)-2-(((benzyloxy)carbonyl)-amino)-4-methylpentanamido)-3-((S)-2-oxopyrrolidin-3-yl)propanoate]
SARS-CoV-2; [3]
  anti-SARS-CoV2 (PRNT) in Vero E6 EC50 (μM): inactive

## CC(C)C[C@H](NC(=O)OCc1ccccc1)C(=O)N[C@H](C=O)C[C@@H]1CCNC1=O [Compound B-1-b, benzyl ((S)-4-methyl-1-oxo-1-(((S)-1-oxo-3-((S)-2-oxopyrrolidin-3-yl)propan-2-yl)amino)pentan-2-yl)carbamate]
SARS-CoV-2; Severe acute respiratory syndrome coronavirus 2, Vero C1008, 72 h
  EC50: 1130 nM

## COC(=O)[C@H](C)NC(=O)[C@@H]1[C@@H]2[C@H](CN1C(=O)[C@@H](NC(=O)C(F)(F)F)C(C)(C)C)C2(C)C [Compound F-1-a, methyl ((1R,2S,5S)-3-((S)-3,3-dimethyl-2-(2,2,2-trifluoroacetamido)butanoyl)-6,6-dimethyl-3-azabicyclo[3.1.0]hexane-2-carbonyl)-L-alaninate]
SARS-CoV-2
  anti-SARS-CoV2 (PRNT) in Vero E6 EC50 (μM): inactive

## CC(C)C[C@H](NC(=O)OCc1ccccc1)C(=O)N[C@@H](C[C@@H]1CCNC1=O)C(=O)CCl [Compound B-1-c]
SARS-CoV-2
  EC50: 2290 nM

## CC(C)(C)[C@H](NC(=O)C(F)(F)F)C(=O)N[C@@H](CC1CCCCC1)C(=O)N[C@H](C#N)C[C@@H]1CCNC1=O [Compound D-4-a]
[1]
  Liver Microsomal Stability (ER) Human: 0.46
[2]
  Liver Microsomal Stability (ER) SD rat: 0.29
  Liver Microsomal Stability (ER) Beagle dog: 0.21
  Liver Microsomal Stability (ER) Mouse: 0.72
